Entries after “also recorded” stand apart in the source; their conditions may differ. Non-standard residues stand in square brackets, D forms with d. Residues, ends and D or L forms follow the SMILES beside them. *: point of attachment. Nle = CCCC[C@H](N)C(=O)O; Cbz = O=C(OCc1ccccc1)*
Key:
[1] = system: Vif-mediated depletion of APOBEC3G-HA in 293T cells; experiment: Proteasome inhibitor panel in 293T cells transiently transfected with APOBEC3G-HA and Vif, immunoblot; assay type: cell-based; settings: 15 hours
Experimental: 293T cells were transfected with the indicated amounts of expression vector DNA using the calcium phosphate method. Lysis buffers used for immunoblotting were (1) 100-400 mM NaCl, 50 mM Hepes, 0.2% NP40, 0-5 mM EDTA, 0.1 mM PMSF, plus complete protease inhibitor cocktail (Roche)(1 tablet/50 ml buffer) or (2) 50 mM Hepes, pH 7.2, 135 mM NaCl, 1% Triton X-100, 0.5% deoxycholate, 10% glycerol, 1 mM EDTA, 1× protease inhibitor cocktail (Calbiochem). Samples were analyzed using standard SDS-PAGE techniques.
(§1) For the proteasome inhibitor experiments in transiently transfected cells, 293T cells were transiently transfected with 0.1 μg of APOBEC3G-HA DNA, 2 μg of control vector DNA and 2 μg of either pcDNA3.1 Vif DNA vector or an additional 2 μg of control vector DNA. Twenty-four hours after transfection, the cells were treated with the indicated inhibitor and harvested 15 hours later. For the proteasome inhibitor experiments using infected H9 cells, H9 cells were infected by spinoculation as described above. Forty-four hours after infection, the cells were treated for 16 hours with either dimethylsulfoxide (DMSO) (0.1%) or 0.25 μM epoxomicin. All of the inhibitors (ALLN, MG132, epoxomicin, Calpain Inhibitor III, and clasto-Lactacystin-β-Lactone) were purchased from CalBiochem and were dissolved in DMSO.
To confirm this finding in a different system, a similar experiment was performed using 293T cells transiently transfected with an APOBEC3G-HA expression vector and either a Vif expression vector or a control vector. Twenty-four hours after transfection the cells were treated with a panel of different proteasome inhibitors for a 15-hour period. It was observed that the broadly acting proteasome inhibitors MG132 (12.5 μM) and ALLN (25 μM) as well as the more specific proteasome inhibitor clasto-Lactacystin-β-Lactone ([…], 20 μM) enhanced the levels of APOBEC3G-HA in the presence of Vif when compared to the diluent control sample (0.1% DMSO) (FIG. 8C, lanes 7 through 12).
(§2) FIG. 8A-C. Vif shortens the half-life of APOBEC3G, and proteasome inhibitors partially block the intracellular depletion of APOBEC3G-HA. (A) Pulse-Chase Radiolabeling. HEK 293 cells transiently transfected with APOBEC3G-HA and Vif or control vector DNA were pulse-labeled for 30 min. The initial pulse-labeled (t=0) samples were harvested, and the remaining samples were incubated with chase media for the indicated time points. After immunoprecipitation with anti-HA antibody, the samples were analyzed by SDS-PAGE and the gels were subjected to autoradiography. The relative intensity of the bands were quantified and the Vif (+) and Vif (−) samples were normalized to 1 and graphed (FIG. 8, right side). The T1/2 of APOBEC3G was 1.9 hours in the presence of Vif and 10 hours in the absence of Vif. (B) Proteasome inhibitor studies using infected H9 cells. Mock or HIV-1 wt-infected H9 cells were treated with the broadly active proteasome inhibitor epoxomicin (0.25 μM) or DMSO (0.1%) 44 hours after infection. Sixteen hours following treatment, the cells were harvested; and whole cell lysates were prepared by boiling the cells in Laemmli lysis buffer. Note that Epoxomicin caused an increase in endogenous APOBEC3G levels in the infected sample (compare lane 2 with lane 1). (C) Proteasome inhibitor studies using transiently-transfected 293T cells. Twenty-four hours following transfection of 293T cells with 0.1 μg APOBEC3G and 2 μg Vif or control vector DNA, the cells were treated with the indicated concentration of inhibitor for 15 hours. APOBEC3G-HA levels were elevated in the presence of the proteasome inhibitors MG132, ALLN, and clasto-lactacystin-β-lactone (lanes 8-11), but not in the presence of calpain inhibitor III (lane 12).

[2] = system: APOBEC3G in peripheral blood lymphocytes; experiment: PBLs incubated with stimulant for 48 hours, Western blot for APOBEC3G (Example 2); assay type: cell-based, Human; settings: incubated with stimulant for 48 hours versus unstimulated
Experimental: Human peripheral blood lymphocytes (PBLs) were isolated from blood and then incubated with anti-CD3 antibody (α-CD3), anti-CD28 antibody (α-CD28), IL-9, IL-12, IL-13, IL-15, or IFN-γ for 48 hours. Cells were lysed, the lysates clarified, and the protein concentration of the lysates was quantitated. Equal amounts of proteins in the lysates were separated by SDS-PAGE. After separation of the proteins by SDS-PAGE, the proteins were transferred to a membrane, and antibody to APOBEC3G was used to detect APOBEC3G protein on the membrane. The results are depicted in FIGS. 1-13.
FIG. 11 depicts the effect of PHA, anti-CD3 antibody, anti-CD28 antibody, and IL-15 on the level of APOBEC3G in peripheral blood lymphocytes. […] Western blot of cell lysates deriving from stimulated and unstimulated peripheral blood lymphocytes. PBLs were isolated from blood and then incubated with the indicated stimulant for 48 hours. Following separation of the proteins by SDS-PAGE, antibody to APOBEC3G was used to detect APOBEC3G protein. As a loading control, anti-β-actin was used to detect β-actin.

[3] = system: Vif-induced degradation of APOBEC3G (26S proteasome) in H9 cells; experiment: Proteasome inhibitor experiment in HIV-1 wt-infected or mock-infected H9 cells, immunoblot of whole cell lysates; assay type: cell-based, human; settings: 0.25 μM; for APOBEC3G levels in infected cells compared to DMSO-treated cells: treated 16 hours, 44 hours after infection
Experimental: as §1
To investigate whether the 26S proteasome might mediate the Vif-induced degradation of APOBEC3G, H9 cells were infected with HIV-1 wt or were mock-infected. […] Whole cell lysates were subsequently prepared by boiling the cells in Laemmli lysis buffer, followed by protein separation by SDS-PAGE and immunoblotting. As expected, APOBEC3G levels were much lower in the infected sample when compared to the uninfected sample (FIG. 8B, lanes 1 and 3).
as §2, with “APOBEC3G-HA levels were elevated in the presence of the proteasome inhibitors MG132, ALLN, and clasto-lactacystin-β-lactone (lanes 8-11), but not in the presence of calpain inhibitor III (lane 12).” left out

CCCC[C@@H](C=O)NC(=O)[C@H](CC(C)C)NC(=O)[C@H](CC(C)C)NC(C)=O [ALLN] (Ac-Leu-Leu-[Nle]-aldehyde)
levels of APOBEC3G-HA in the presence of Vif compared to diluent control (0.1% DMSO) ([1]; 25 μM): enhanced; also recorded: elevated

CC(C)[C@H](NC(=O)OCc1ccccc1)C(=O)N[C@H](C=O)Cc1ccccc1 [Calpain Inhibitor III] (Cbz-Val-Phe-aldehyde)
levels of APOBEC3G-HA in the presence of Vif compared to diluent control (0.1% DMSO) ([1]; 50 μM): did not cause an increase
levels of APOBEC3G-HA in the presence of Vif compared to diluent control (0.1% DMSO) ([1]; 50 μM, listed as calpain inhibitor III): not

CCCCCCCCCCCCCC(=O)O[C@@H]1[C@@H](C)[C@@]2(O)[C@@H](C=C(CO)C[C@]3(O)C(=O)C(C)=C[C@@H]23)[C@@H]2C(C)(C)[C@]12OC(C)=O [PMA, phorbol-12-myristate-13-acetate]
level of APOBEC3G in peripheral blood lymphocytes [2]: upregulated

CC(C)[C@H](O)[C@@]12NC(=O)[C@H](C)[C@@H]1OC2=O [clasto-Lactacystin-β-Lactone]
levels of APOBEC3G-HA in the presence of Vif compared to diluent control (0.1% DMSO) ([1]; 110 μM, 20 μM): enhanced
levels of APOBEC3G-HA in the presence of Vif compared to diluent control (0.1% DMSO) ([1]; 110 μM, 20 μM, listed as clasto-lactacystin-β-lactone): elevated

CC[C@H](C)[C@H](NC(=O)[C@H]([C@@H](C)CC)N(C)C(C)=O)C(=O)N[C@H](C(=O)N[C@@H](CC(C)C)C(=O)[C@@]1(C)CO1)[C@@H](C)O [epoxomicin]
Vif levels ([3]; HIV-1 wt-infected H9 cells, 16 hours): increase
APOBEC3G levels in infected cells compared to DMSO-treated cells ([3]; HIV-1 wt-infected H9 cells): elevated
APOBEC3G levels in infected cells compared to DMSO-treated cells ([3]; HIV-1 wt-infected H9 cells, listed as Epoxomicin): increase
level of APOBEC3G in the uninfected cultures ([3]; mock-infected H9 cells, 16 hours): did not appear to cause a similar increase

CC(=O)O[C@@]12C[C@@H](C)[C@@]3(O)[C@@H](C=C(CO)C[C@]4(O)C(=O)C(C)=C[C@@H]34)[C@@H]1C2(C)C [prostratin, 12-deoxyphorbol-13-acetate]
level of APOBEC3G in peripheral blood lymphocytes [2]: upregulated

IL-15: cytokine
level of APOBEC3G in peripheral blood lymphocytes [2]: increased expression

Reference: patent US7723021B2, “Methods for treating lentivirus infections” (The J. David Gladstone Institutes, priority 2003, dated 2010)
